Measurements as given in US11466029B2, “Compounds useful to treat influenza virus infections” (Nanjing Zhengxiang Pharmaceuticals Co., Ltd., priority 2019, dated 2022).
Entries after “also recorded” stand apart in the source; their conditions may differ. Read-outs that look alike come from different tables or passages of the source.

Experiments:
influenza virus = type: cell-based
IFV A/PR/8/34 (H1N1) = experiment: microbe, parasite or virus in culture; type: cell-based; settings: Influenza A virus, MDCK, 120 h
A/Hongkong/8/68 (H3N2) = experiment: microbe, parasite or virus in culture; type: cell-based; settings: Influenza A virus, H3N2, MDCK, 120 h
A/Weiss/43 (H1N1) = experiment: microbe, parasite or virus in culture; type: cell-based; settings: Influenza A virus, H1N1, MDCK, 120 h
Pharmacokinetics in Rats = type: in vivo; design: AUClast: unit not given here; settings: non-fasted male SD rats, plasma B-1
Protocol: C-1 was administered to 3 non-fasted male SD rats via oral gavage at 3 mg/kg.

B/Lee/40 = experiment: microbe, parasite or virus in culture; type: cell-based; settings: Influenza B virus, MDCK, 120 h
[1] = target: Influenza Virus CEN PAn enzyme (UniProt P03433); type: biochemical; settings: read-out: CEN IC50
in vivo [2] = settings: male, CD-1, mouse, iv, 1 mg/kg
Protocol: (§1) B-1 was administered to male CD-1 mice (4-6 weeks old, 20-30 grams, 3 animals each group) via intravenous (IV) bolus at 1 mg/kg and by oral gavage (PO) at 10 mg/kg. […] All animals had free access to food and water prior to dosing. Blood samples (˜0.03 mL each time point) were collected via the jugular vein into tubes containing sodium heparin as the anticoagulant at 0.033, 0.083, 0.25, 0.5, 1, 2, 4, 8 and 24 hours post dose for IV administration and 0.083, 0.25, 0.5, 1, 2, 4, 8 and 24 hours post dose for PO administration. The blood samples were then centrifuged for 5 minutes in a centrifuge refrigerated at 4° C. The resultant plasma samples were analyzed using LC/MS/MS to determine concentrations of B-1. Non-compartmental model with WinNonlin (Phoenix™, version 8.0) software was used to calculate pharmacokinetic (PK) parameters.

influenza virus PR/8/34 = tested on: influenza virus PR/8/34; design: species or system Balb/c mice; settings: in vivo
[3] = tested on: A/California/07/2009 (H1N1)pdm09; experiment: microbe, parasite or virus in culture; type: cell-based; settings: Influenza A virus, H1N1, MDCK, 120 h
[4] = male CD-1 mice, plasma B-1
Protocol: as §1

[5] = plasma B-1
Protocol: (§2) B-1 was administered to male cynomolgus monkeys (2-5 years old, 2-5 kg, 3 animals each group) via intravenous (IV) bolus at 0.25 mg/kg and by oral gavage (PO) at 1 mg/kg; Animals in the IV group had free access to food and water (non-fasted) and animals in the PO group were fasted overnight prior to dosing (fasted). C-1 was administered to male cynomolgus monkeys (fasted or non-fasted, 3 each group) via oral gavage at 1 mg/kg. Blood samples (˜0.5 mL each time point) were collected via the jugular vein into tubes containing potassium ethylenediaminetetraacetic acid (K2EDTA) as the anticoagulant at 0.033, 0.083, 0.25, 0.5, 1, 2, 4, 8 and 24 hours post dose for IV administration and 0.083, 0.25, 0.5, 1, 2, 4, 8 and 24 hours post dose for PO administration. The blood samples were then centrifuged for 10 minutes in a centrifuge refrigerated at 2-8° C. The resultant plasma samples were analyzed using LC/MS/MS to determine concentrations of B-1. Non-compartmental model with WinNonlin (Phoenix™, version 6.1) software was used to calculate pharmacokinetic (PK) parameters.

B/Florida/78/2015 = experiment: microbe, parasite or virus in culture; type: cell-based; settings: Influenza B virus, MDCK, 120 h
IFV A/WSN/33 (H1N1) = experiment: microbe, parasite or virus in culture; type: cell-based; settings: Influenza A virus, MDCK, 120 h
in vitro = settings: dog
in vivo [6] = settings: male, cynomolgus monkey, iv, 0.25 mg/kg
Protocol: as §2

[7] = Sprague-Dawley (SD), rat, IV 0.25 mg/kg

O=C1c2c(O)c(=O)ccn2N([C@@H]2c3ccccc3[Se]Cc3c2ccc(F)c3F)[C@@H]2COCCN12 [Compound B-1, (R)-12-((S)-7,8-Difluoro-6,11-Dihydrodibenzo[b,e]Selenepin-11-yl)-7-Hydroxy-3,4,12,12a-Tetrahydro-1H-[1,4]Oxazino[3,4-c]Pyrido[2,1-f][1,2,4]Triazine-6,8-Dione]
antivirus activity (influenza virus): potent antivirus activity | EC50 (IFV A/PR/8/34 (H1N1)): 1.1 nM | EC50 (A/Hongkong/8/68 (H3N2)): 0.68 nM | EC50 (A/Weiss/43 (H1N1)): 1.2 nM | AUClast (Pharmacokinetics in Rats; IV 0.25 mg/kg): 84 | AUClast (Pharmacokinetics in Rats; PO 3 mg/kg): 123 | AUC(0-inf) (Pharmacokinetics in Rats; [7]): 92 ng·h/mL | half-life (Pharmacokinetics in Rats; [7]): 4 h | EC50 (B/Lee/40): 12 nM | IC50 [1]: 15 nM | AUC(0-inf) (in vivo [2]): 608 ng·h/mL | half-life (in vivo [2]): 4.1 h | antivirus efficacy in influenza virus PR/8/34 mouse model (influenza virus PR/8/34): potent antivirus efficacy; also recorded: potent antivirus activity | survival (influenza virus PR/8/34; mouse, po): survived throughout the study | body weight loss (influenza virus PR/8/34; mouse, po, 5 mg/kg): minimal | EC50 [3]: 0.37 nM | cytotoxicity (MDCK cells): little cytotoxicity | AUClast ([4]; IV 1 mg/kg): 601 | AUClast ([4]; PO 10 mg/kg): 2129 | AUClast ([5]; IV 0.25 mg/kg, non-fasted male cynomolgus monkeys): 204 | AUClast ([5]; PO 1 mg/kg, fasted male cynomolgus monkeys): 231 | EC50 (B/Florida/78/2015): 25 nM | EC50 (IFV A/WSN/33 (H1N1)): 0.32 nM | CC50 (in vitro): 13000 nM | AUC(0-inf) (in vivo [6]): 257 ng·h/mL | half-life (in vivo [6]): 11 h
